Starred links: 1 amine or outer side, 2 acyl side, 3 side chain; linkers in the order of their positions; H or OH if unused. Residues, ends and D or L forms follow the SMILES beside them. *: point of attachment. X1 = CC[C@@]1(O)C(=O)OCc2c1cc1n(c2=O)Cc2c-1nc1cc(F)c(C)c3c1c2[C@@H](NC(=O)CNC(=O)[C@H](Cc1ccccc1)NC(=O)CNC(=O)CNC(=O)CCCCC(=O)*)CC3; Pteroyl = Nc1nc2ncc(CNc3ccc(C(=O)*)cc3)nc2c(=O)[nH]1; γGlu = O=C(O)[C@H](CCC(=O)[*:2])N[*:1]
Assays:
MIA PaCa2 cells = assay: Cell expansion inhibition assay (CCK-8, 72 h), Table 4; format: cell-based, human; settings: without expression of FOLR1, read-out: MIAPACA-2 IC50
Description: (§1) Cell lines: HEK293T-FOLR1 (a stably transformed cell line overexpressing FOLR1), SK-BR-3 (human breast cancer cell with low expression of FOLR1) and MIA PaCa2 (human pancreatic cancer cell without expression of FOLR1).
(§2) Main reagents: 1640 folic acid-free medium, fetal bovine serum, penicillin-streptomycin solution, L-glutamine and CCK8.
(§3) (1) Cell plating: Cells were prepared in advance, digested with Trypsin, collected and counted. A complete cell culture medium was used to dilute SK-BR-3 cells to 3.0×10^4 cells/ml, HEK293T-FOLR1 cells to 1.5×10^4 cells/ml, and MIA PaCa-2 cells to 2.0×10^4 cells/ml. 100 μl of diluted cell solution was added to each well of 96-well plates, and negative and blank control wells were set on each plate. The 96-well plates added with the cells were placed in an incubator at 37° C., 5% CO2 for culturing overnight.
(§4) (2) Diluting and adding samples: The samples were serially diluted with medium (the starting concentration was 30 μM, 5-fold serial dilution), and a total of 10 concentration gradients were set. To each well of the 96-well plates that were cultured overnight, 50 μl of the diluted samples were added, with 3 replicate wells; negative controls and blank controls were set; and the plates were placed in an incubator at 37° C., 5% CO2 for culturing 72 h.
(§5) (3) Color development and reading plate: To each well, 15 μl (10% of the liquid volume in a well) of a color developing solution from CCK-8 was added; the plates were incubated at 37° C. for an appropriate time (try to keep the OD value in the range of 1.0-2.5); the covers of the 96-well plates were removed, and the plates were read at 450 nm on a microplate reader (Molecular Devices SpectraMax iD5).
(§6) (4) Data processing: The data was edited using SoftMax Pro 7.1 and a four-parameter fitting curve was plotted.

HEK293T-FOLR1 cells [1] = assay: as above; format: cell-based, human
Description: as §1, §2, §3, §4, §5, §6

[2] = Safety evaluation in ICR mice; format: in vivo
Description: Experiment purpose: Safety evaluation of CR194AX in ICR mice
Sample preparation: An appropriate amount of CR194AX was weighed and dissolved in PBS, and an appropriate amount of alkaline solution was added to formulate a sample mother solution with a neutral pH, which was filtered and diluted with filtered PBS to a sample solution with a working concentration for later use.
Experimental design: ICR mice (female, 6-8 weeks old, weighing about 25 g) were randomly grouped according to body weight, and the administration was started on the first day of grouping. The dosage was adjusted according to the latest body weight of the mice, and the administration was performed via tail vein injection at an administration volume of 10 μl/g. After grouping and administration, the effects of the drugs on the normal behaviors of the animals, including the activity, food intake and drinking status, body weight, eyes, hair, feces, secretions and other abnormalities of the experimental animals, were tested. The body weight of the mice was measured twice a week and observed for 8 days after the last administration. At the end of the experiment, the liver and spleen were weighed, and the liver, spleen, lung, kidney and stomach were taken out and placed in 10% formalin neutral fixative for HE analysis. Sample preparation: An appropriate amount of the compound was weighed and dissolved in PBS, and an appropriate amount of alkaline solution was added to formulate a sample mother solution with a neutral pH, which was filtered and diluted with filtered physiological saline to a sample solution with a working concentration for later use.

SK-BR-3 cells [3] = assay: Cell expansion inhibition assay (CCK-8, 72 h), Table 4; format: cell-based, human
Description: as §1, §2, §3, §4, §5, §6

HEK293T-FOLR1 cells [4] = assay: Cell expansion inhibition assay (CCK-8, 72 h), Table 3; format: cell-based, human; settings: FOLR1 high expression
Description: (§7) Cell lines: HEK293T-FOLR1 (a stably transformed cell line overexpressing FOLR1), SK-BR-3 (human breast cancer cell) and HEK293T (human embryonic kidney cell).
as §2
(§8) (1) Cell plating: Cells were prepared in advance, digested with Trypsin, collected and counted. A complete cell culture medium was used to dilute HEK293T-FOLR1 and HEK293T cells to 6×10^3 cells/ml, and dilute SK-BR-3 cells to 1.5×10^4 cells/ml. 100 μl of diluted cell solution was added to each well of 96-well plates, and negative and blank control wells were set on each plate. The 96-well plates added with the cells were placed in an incubator at 37° C., 5% CO2 for culturing overnight.
as §4, §5, §6

HEK293T cells = assay: as above; format: cell-based, human; settings: no visible FOLR1 expression
Description: as §7, §2, §8, §4, §5, §6

SK-BR-3 cells [5] = assay: as above; format: cell-based, human; settings: FOLR1 low expression
Description: as §7, §2, §8, §4, §5, §6

[6] = 50 mg/kg, qw*3 and q3d*6, tail vein

`CC[C@@]1(O)C(=O)OCc2c1cc1n(c2=O)Cc2c-1nc1cc(F)c(C)c3c1c2[C@@H](NC(=O)CO)CC3` [Dxd] gave an IC50 (MIA PaCa2 cells) of 111 nM and an IC50 (HEK293T-FOLR1 cells [1]) of 1.68 nM.

With `CC[C@@]1(O)C(=O)OCc2c1cc1n(c2=O)Cc2c-1nc1cc(F)c(C)c3c1c2[C@@H](NC(=O)CNC(=O)[C@H](Cc1ccccc1)NC(=O)CNC(=O)CNC(=O)CCCCC(=O)NCCCC[C@H](NC(=O)[C@H](CS)NC(=O)CC[C@H](NC(=O)c1ccc(NCc2cnc4nc(N)nc(O)c4n2)cc1)C(=O)O)C(=O)N[C@@H](CCC(=O)O)C(=O)N[C@@H](Cc1ccccc1)C(=O)N[C@@H](CC(C)C)C(=O)N[C@@H](Cc1c[nH]cn1)C(=O)N1CCC[C@H]1C(=O)N[C@@H](CO)C(=O)N[C@@H](CCCCN)C(=O)N[C@H](C(=O)N[C@@H](CC(=O)O)C(=O)N[C@@H](CC(C)C)C(=O)N1CCC[C@H]1C(=O)N[C@@H](CCCNC(=N)N)C(=O)O)C(C)C)CC3` [CR194AX] ({Pteroyl-γGlu}-CK(X1)EFLHPSKVDLPR-OH) the “average weight loss of the mice” value ([2]; 25 mg/kg q3d*6, tail vein) was ≤ 5%, the “mortality during the administration” value ([2]; 25 mg/kg q3d*6, tail vein) was “no mice died” and the tolerance ([2]; 25 mg/kg q3d*6, tail vein) was “good tolerance”. For the same compound, the “average weight loss of the mice” value [2, 6] was ≤ 10%, the “mortality during the administration period” value [2, 6] was “no mice died” and the tolerance [2, 6] was “good tolerance”. The “weights of the liver and spleen compared with the negative control group” value ([2]; each administration group, end of experiment) was “no significant difference”.

`CCc1c2c(nc3ccc(O)cc13)-c1cc3c(c(=O)n1C2)COC(=O)[C@]3(O)CC` [SN38] gave an IC50 (MIA PaCa2 cells) of 7.03 nM, an IC50 (HEK293T-FOLR1 cells [1]) of 0.943 nM and an IC50 (SK-BR-3 cells [3]) of 0.947 nM.

`CC[C@@]1(O)C(=O)OCc2c1cc1n(c2=O)Cc2c-1nc1cc(F)c(C)c3c1c2[C@@H](N)CC3` [Dx] gave an IC50 (HEK293T-FOLR1 cells [4]) of 1.02 nM, an IC50 (HEK293T cells) of 1.12 nM and an IC50 (SK-BR-3 cells [5]) of 0.599 nM. It also gave an IC50 (MIA PaCa2 cells) of 5.53 nM, an IC50 (HEK293T-FOLR1 cells [1]) of 0.995 nM and an IC50 (SK-BR-3 cells [3]) of 0.569 nM.
